Legend:
[1] = biological target: T1, GSPT1 protein (Homo sapiens, UniProt P15170+Q96SW2); experiment: Degradation of GSPT1 in KG-1 cells (Western blot); format: cell-based; set-up: percent GSPT1 degradation: dose or concentration left out as unconfirmed; details: for percent GSPT1 degradation at 0.2 µM: KG-1 cells, compound concentration 200 nM, 4 hours
T1 construct: host or cells: KG-1 cells
Procedure: KG-1 cells (ATCC) were grown in an IMDM culture medium (containing 20% FBS). After centrifugation and counting, the cell concentration was adjusted. The cells were plated onto 6-well plates at 10^6 cells/well, with 1350 µL per well. 150 µL of DMSO and the test compounds of the present disclosure (compound concentration: 200 nM) were added. The plates were incubated in an incubator at 37 °C with 5% CO2 for 4 hours. The cells were centrifuged, and the culture medium was discarded. PBS was added to wash the cells and then discarded. Whole cell lysates were prepared using a protease inhibitor cocktail (100×, Fude Biological), a protein phosphatase inhibitor cocktail (100×, Fude Biological), SuperNuclease (Beyotime), and a high-intensity RIPA lysis buffer (Thermo Fisher) and placed on ice for 30 minutes. After centrifugation, the cell debris precipitates were discarded, and the whole cell lysate supernatants were collected and transferred to new centrifuge tubes. After a BCA protein assay, samples were prepared using a 5× loading buffer (Thermo Fisher). The samples were subjected to protein electrophoresis separation in a 4-20% precast gel (SDS-PAGE gel), transferred to a PVDF membrane, then blocked with 5% NFDM/TBST at room temperature for 1 hour, incubated overnight with primary antibodies at 4 °C, and incubated with a secondary antibody at room temperature for 2 hours the next day. Signals were detected using a MINICHEMITM imaging system.
Primary antibodies: • Anti-GSPT1: Abcam ab234433 • Anti-beta actin: Fude Biological FD0060
Secondary antibody: Anti-rabbit peroxidase-linked secondary antibody: Fude Biological FDG007
The degradation effects of the compounds on GSPT1 protein are shown in Table 1, where A represents a GSPT1 protein degradation percentage of no less than 80%, B represents a degradation percentage of less than 80% but no less than 50%, C represents a degradation percentage of less than 50% but no less than 25%, and D represents a degradation percentage of less than 25%. Table 1. The degradation of GSPT1 protein by compounds

[2] = tested on: KG-1 cells; experiment: Antiproliferative activity against KG-1 cells (CCK8); format: cell-based; details: Homo sapiens, 72 hours
Procedure: KG-1 cells in the logarithmic growth phase were diluted in a culture medium (RPMI + 10% FBS) and plated onto 96-well plates at 5000 cells/well, and the plates were incubated in an incubator at 37 °C with 5% CO2 for 24 hours. 10 mM stock solutions of the test compounds of the present disclosure in DMSO were prepared and diluted with the culture medium to set 9 concentration gradients. Three replicate wells were set for each concentration. After compound addition, the plates were incubated in an incubator at 37 °C with 5% CO2 for 72 hours. The cell proliferation was assessed using the CCK8 method. The cell growth inhibition IC50 values of the compounds were determined using an enzyme labeling method. The IC50 values were calculated using GraphPad Prism 7 software.
The antiproliferative activity of the compounds against KG-1 cells is shown in Table 2, where A represents IC50 < 1 nM, B represents 1 ≤ IC50 < 10 nM, C represents 10 nM ≤ IC50 < 100 nM, D represents 100 nM ≤ IC50 < 1000 nM, and E represents IC50 ≥ 1000 nM. Table 2. The antiproliferative activity of compounds against KG-1 cells

T1 sequence (P15170 whole entry): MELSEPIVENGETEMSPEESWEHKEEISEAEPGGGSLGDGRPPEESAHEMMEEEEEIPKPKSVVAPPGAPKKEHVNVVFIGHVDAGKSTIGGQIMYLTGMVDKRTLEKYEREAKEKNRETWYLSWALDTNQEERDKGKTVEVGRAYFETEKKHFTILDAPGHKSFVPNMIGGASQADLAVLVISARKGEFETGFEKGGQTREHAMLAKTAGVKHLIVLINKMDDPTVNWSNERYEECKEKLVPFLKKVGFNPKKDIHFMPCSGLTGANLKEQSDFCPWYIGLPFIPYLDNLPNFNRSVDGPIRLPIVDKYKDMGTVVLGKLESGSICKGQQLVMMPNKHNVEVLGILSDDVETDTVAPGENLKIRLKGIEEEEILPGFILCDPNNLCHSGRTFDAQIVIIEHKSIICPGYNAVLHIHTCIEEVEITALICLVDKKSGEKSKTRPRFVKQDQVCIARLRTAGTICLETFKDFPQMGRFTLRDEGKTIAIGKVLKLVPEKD
T1 sequence (Q96SW2 whole entry): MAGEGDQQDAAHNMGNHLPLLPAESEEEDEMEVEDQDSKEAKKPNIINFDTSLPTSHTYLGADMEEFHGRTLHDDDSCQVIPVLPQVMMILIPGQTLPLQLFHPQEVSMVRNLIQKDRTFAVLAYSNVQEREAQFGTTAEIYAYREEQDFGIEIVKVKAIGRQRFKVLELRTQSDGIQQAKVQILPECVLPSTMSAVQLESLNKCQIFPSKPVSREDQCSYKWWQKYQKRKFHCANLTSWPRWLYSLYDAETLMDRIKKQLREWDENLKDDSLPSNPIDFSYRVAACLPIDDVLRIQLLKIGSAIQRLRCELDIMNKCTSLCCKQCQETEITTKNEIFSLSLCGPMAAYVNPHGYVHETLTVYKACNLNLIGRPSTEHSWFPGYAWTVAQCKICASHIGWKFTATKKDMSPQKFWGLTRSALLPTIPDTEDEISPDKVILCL
T1 sequence (Q16531 whole entry partner): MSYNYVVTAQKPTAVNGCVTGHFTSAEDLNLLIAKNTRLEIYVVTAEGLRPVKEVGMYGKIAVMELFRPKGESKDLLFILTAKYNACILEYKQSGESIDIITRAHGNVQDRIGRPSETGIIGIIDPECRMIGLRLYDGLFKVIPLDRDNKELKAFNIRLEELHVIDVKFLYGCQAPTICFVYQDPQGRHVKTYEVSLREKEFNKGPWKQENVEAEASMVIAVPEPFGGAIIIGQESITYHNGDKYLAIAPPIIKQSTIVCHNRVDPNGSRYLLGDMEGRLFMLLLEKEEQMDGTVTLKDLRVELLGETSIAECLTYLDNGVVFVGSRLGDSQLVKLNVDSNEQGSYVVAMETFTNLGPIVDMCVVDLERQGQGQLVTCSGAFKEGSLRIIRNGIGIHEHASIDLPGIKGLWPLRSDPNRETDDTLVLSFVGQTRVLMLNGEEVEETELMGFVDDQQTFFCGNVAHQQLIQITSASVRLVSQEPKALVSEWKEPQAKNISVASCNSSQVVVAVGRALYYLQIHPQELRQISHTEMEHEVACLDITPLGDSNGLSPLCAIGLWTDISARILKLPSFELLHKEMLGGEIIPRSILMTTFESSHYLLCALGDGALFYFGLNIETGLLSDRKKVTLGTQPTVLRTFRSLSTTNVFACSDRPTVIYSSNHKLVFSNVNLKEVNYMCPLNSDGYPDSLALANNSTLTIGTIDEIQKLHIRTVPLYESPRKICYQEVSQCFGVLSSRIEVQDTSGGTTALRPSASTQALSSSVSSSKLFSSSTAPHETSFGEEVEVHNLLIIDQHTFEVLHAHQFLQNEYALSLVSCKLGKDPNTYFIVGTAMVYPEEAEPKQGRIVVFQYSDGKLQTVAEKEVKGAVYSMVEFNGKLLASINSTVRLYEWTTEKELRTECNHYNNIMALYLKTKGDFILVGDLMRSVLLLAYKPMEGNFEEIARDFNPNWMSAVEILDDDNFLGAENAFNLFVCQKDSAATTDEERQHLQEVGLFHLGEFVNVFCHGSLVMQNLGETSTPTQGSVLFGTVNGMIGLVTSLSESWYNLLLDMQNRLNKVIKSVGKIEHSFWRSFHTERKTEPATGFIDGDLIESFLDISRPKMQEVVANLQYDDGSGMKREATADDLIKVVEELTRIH

SMILES | percent GSPT1 degradation at 0.2 µM [1] [%] | IC50 [2] [µM] | percent GSPT1 degradation ([1]; KG-1, 4 h, read-out: GSPT1 degradation) [%]
O=C1CCC(N2Cc3cc(CNC(=O)C4=Cc5c(F)cccc5OC4)ccc3C2=O)C(=O)N1 (stereo not drawn) [Compound A-2, N-((2-(2,6-Dioxopiperidin-3-yl)-1-oxoisoindolin-5-yl)methyl)-5-fluoro-2H-chromene-3-carboxamide] | > 80 | 0.01 to 0.1 | –
O=C1CCC(N2Cc3cc(CNC(=O)C4=Cc5ccc(F)cc5OC4)ccc3C2=O)C(=O)N1 (stereo not drawn) [Compound A-4, N-((2-(2,6-Dioxopiperidin-3-yl)-1-oxoisoindolin-5-yl)methyl)-7-fluoro-2H-chromene-3-carboxamide] | 50 to 80 | 0.01 to 0.1 | –
O=C1CCC(N2Cc3cc(CNC(=O)C4=Cc5cccc(F)c5OC4)ccc3C2=O)C(=O)N1 (stereo not drawn) [Compound A-5, N-((2-(2,6-Dioxopiperidin-3-yl)-1-oxoisoindolin-5-yl)methyl)-8-fluoro-2H-chromene-3-carboxamide] | > 80 | 0.001 to 0.01 | –
O=C1CCC(N2Cc3cc(CNC(=O)C4=Cc5cc(Cl)ccc5OC4)ccc3C2=O)C(=O)N1 (stereo not drawn) [Compound A-6, N-((2-(2,6-Dioxopiperidin-3-yl)-1-oxoisoindolin-5-yl)methyl)-6-chloro-2H-chromene-3-carboxamide] | – | 0.01 to 0.1 | > 80
Cc1ccc2c(c1)C=C(C(=O)NCc1ccc3c(c1)CN(C1CCC(=O)NC1=O)C3=O)CO2 (stereo not drawn) [Compound A-7, N-((2-(2,6-Dioxopiperidin-3-yl)-1-oxoisoindolin-5-yl)methyl)-6-methyl-2H-chromene-3-carboxamide] | > 80 | 0.001 to 0.01 | –
COc1ccc2c(c1)C=C(C(=O)NCc1ccc3c(c1)CN(C1CCC(=O)NC1=O)C3=O)CO2 (stereo not drawn) [Compound A-8, N-((2-(2,6-Dioxopiperidin-3-yl)-1-oxoisoindolin-5-yl)methyl)-6-methoxy-2H-chromene-3-carboxamide] | 50 to 80 | 0.01 to 0.1 | –
COc1cccc2c1C=C(C(=O)NCc1ccc3c(c1)CN(C1CCC(=O)NC1=O)C3=O)CO2 (stereo not drawn) [Compound A-9, N-((2-(2,6-Dioxopiperidin-3-yl)-1-oxoisoindolin-5-yl)methyl)-5-methoxy-2H-chromene-3-carboxamide] | > 80 | 0.001 to 0.01 | –
N#Cc1ccc2c(c1)C=C(C(=O)NCc1ccc3c(c1)CN(C1CCC(=O)NC1=O)C3=O)CO2 (stereo not drawn) [Compound A-11, N-((2-(2,6-Dioxopiperidin-3-yl)-1-oxoisoindolin-5-yl)methyl)-6-cyano-2H-chromene-3-carboxamide] | > 80 | 0.01 to 0.1 | –
Nc1ccc2c(c1)C=C(C(=O)NCc1ccc3c(c1)CN(C1CCC(=O)NC1=O)C3=O)CO2 (stereo not drawn) [Compound A-12, N-((2-(2,6-Dioxopiperidin-3-yl)-1-oxoisoindolin-5-yl)methyl)-6-amino-2H-chromene-3-carboxamide] | > 80 | 0.01 to 0.1 | –
CN(C)c1ccc2c(c1)C=C(C(=O)NCc1ccc3c(c1)CN(C1CCC(=O)NC1=O)C3=O)CO2 (stereo not drawn) [Compound A-13, N-((2-(2,6-Dioxopiperidin-3-yl)-1-oxoisoindolin-5-yl)methyl)-6-(dimethylamino)-2H-chromene-3-carboxamide] | 50 to 80 | 0.01 to 0.1 | –
C=Cc1ccc2c(c1)C=C(C(=O)NCc1ccc3c(c1)CN(C1CCC(=O)NC1=O)C3=O)CO2 (stereo not drawn) [Compound A-14, N-((2-(2,6-Dioxopiperidin-3-yl)-1-oxoisoindolin-5-yl)methyl)-6-vinyl-2H-chromene-3-carboxamide] | 50 to 80 | 0.01 to 0.1 | –
C#Cc1ccc2c(c1)C=C(C(=O)NCc1ccc3c(c1)CN(C1CCC(=O)NC1=O)C3=O)CO2 (stereo not drawn) [Compound A-15, N-((2-(2,6-Dioxopiperidin-3-yl)-1-oxoisoindolin-5-yl)methyl)-6-ethynyl-2H-chromene-3-carboxamide] | 50 to 80 | 0.1 to 1 | –
CC(C)(C)c1ccc2c(c1)C=C(C(=O)NCc1ccc3c(c1)CN(C1CCC(=O)NC1=O)C3=O)CO2 (stereo not drawn) [Compound A-16, N-((2-(2,6-Dioxopiperidin-3-yl)-1-oxoisoindolin-5-yl)methyl)-6-tert-butyl-2H-chromene-3-carboxamide] | 50 to 80 | 0.01 to 0.1 | –
O=C1CCC(N2Cc3cc(CNC(=O)C4=Cc5cc(-c6ccccc6)ccc5OC4)ccc3C2=O)C(=O)N1 (stereo not drawn) [Compound A-17, N-((2-(2,6-Dioxopiperidin-3-yl)-1-oxoisoindolin-5-yl)methyl)-6-phenyl-2H-chromene-3-carboxamide] | 50 to 80 | 0.1 to 1 | –
O=C1CCC(N2Cc3cc(CNC(=O)C4=Cc5cccc(C(F)(F)F)c5OC4)ccc3C2=O)C(=O)N1 (stereo not drawn) [Compound A-18, N-((2-(2,6-Dioxopiperidin-3-yl)-1-oxoisoindolin-5-yl)methyl)-8-trifluoromethyl-2H-chromene-3-carboxamide] | > 80 | < 0.001 | –

More lines, main results first:

percent GSPT1 degradation at 0.2 µM [1] [%] | SMILES | IC50 [2] [µM] | percent GSPT1 degradation ([1]; KG-1, 4 h, read-out: GSPT1 degradation) [%]
> 80 | O=C1CCC(N2Cc3cc(CNC(=O)C4=Cc5cccc(OC(F)(F)F)c5OC4)ccc3C2=O)C(=O)N1 (stereo not drawn) [Compound A-19, N-((2-(2,6-Dioxopiperidin-3-yl)-1-oxoisoindolin-5-yl)methyl)-8-trifluoromethoxy-2H-chromene-3-carboxamide] | 0.001 to 0.01 | –
> 80 | COc1cccc2c1OCC(C(=O)NCc1ccc3c(c1)CN(C1CCC(=O)NC1=O)C3=O)=C2 (stereo not drawn) [Compound A-20, N-((2-(2,6-Dioxopiperidin-3-yl)-1-oxoisoindolin-5-yl)methyl)-8-methoxy-2H-chromene-3-carboxamide] | 0.001 to 0.01 | –
> 80 | Cc1cccc2c1OCC(C(=O)NCc1ccc3c(c1)CN(C1CCC(=O)NC1=O)C3=O)=C2 (stereo not drawn) [Compound A-21, N-((2-(2,6-Dioxopiperidin-3-yl)-1-oxoisoindolin-5-yl)methyl)-8-methyl-2H-chromene-3-carboxamide] | 0.001 to 0.01 | –
> 80 | Cc1cccc2c1C=C(C(=O)NCc1ccc3c(c1)CN(C1CCC(=O)NC1=O)C3=O)CO2 (stereo not drawn) [Compound A-22, N-((2-(2,6-Dioxopiperidin-3-yl)-1-oxoisoindolin-5-yl)methyl)-5-methyl-2H-chromene-3-carboxamide] | 0.001 to 0.01 | –
25 to 50 | CC(=O)Nc1ccc2c(c1)C=C(C(=O)NCc1ccc3c(c1)CN(C1CCC(=O)NC1=O)C3=O)CO2 (stereo not drawn) [Compound A-23, N-((2-(2,6-Dioxopiperidin-3-yl)-1-oxoisoindolin-5-yl)methyl)-6-(acetamido)-2H-chromene-3-carboxamide] | ≥ 1 | –
25 to 50 | C=CC(=O)Nc1ccc2c(c1)C=C(C(=O)NCc1ccc3c(c1)CN(C1CCC(=O)NC1=O)C3=O)CO2 (stereo not drawn) [Compound A-24, N-((2-(2,6-Dioxopiperidin-3-yl)-1-oxoisoindolin-5-yl)methyl)-6-(acrylamido)-2H-chromene-3-carboxamide] | ≥ 1 | –
25 to 50 | O=C1CCC(N2Cc3cc(CNC(=O)C4=Cc5cc(NC(=O)CO)ccc5OC4)ccc3C2=O)C(=O)N1 (stereo not drawn) [Compound A-25, N-((2-(2,6-Dioxopiperidin-3-yl)-1-oxoisoindolin-5-yl)methyl)-6-(2-hydroxyacetamido)-2H-chromene-3-carboxamide] | ≥ 1 | –
< 25 | O=C1CCC(N2Cc3cc(CNC(=O)C4=Cc5cc(NC(=O)C6CC6)ccc5OC4)ccc3C2=O)C(=O)N1 (stereo not drawn) [Compound A-26, N-((2-(2,6-Dioxopiperidin-3-yl)-1-oxoisoindolin-5-yl)methyl)-6-(cyclopropanecarboxamido)-2H-chromene-3-carboxamide] | 0.1 to 1 | –
< 25 | O=C1CCC(N2Cc3cc(CNC(=O)C4=Cc5cc(NC(=O)C6CCC6)ccc5OC4)ccc3C2=O)C(=O)N1 (stereo not drawn) [Compound A-27, N-((2-(2,6-Dioxopiperidin-3-yl)-1-oxoisoindolin-5-yl)methyl)-6-(cyclobutanecarboxamido)-2H-chromene-3-carboxamide] | 0.1 to 1 | –
